Laboratory results reported in patent publication US8461382B2, “Ionic liquids” (BASF SE, priority 2007, dated 2013).

Key:
[1] = Viscosity of the ionic liquids at 25° C.; type: physicochemical
Method: (§1) The viscosity at 25° C. at a low shear rate is in the order of one million millipascal seconds.
(§2) Melting and decomposition points (commencement of decomposition) and viscosities of various 2,5,8,11-tetraoxatridecan-13-oates.
^1All liquids examined behaved as Newtonian fluids

[2] = Decomposition point (commencement of decomposition) of 2,5,8,11-tetraoxatridecan-13-oates; type: physicochemical
From the text: as §2

[3] = Miscibility of the ionic liquid with water and organic solvents; type: physicochemical
Method: as §1
(§3) Owing to the amphiphilic and thus solubilizing properties, the ionic liquid of example 6 has a wider solvent spectrum than conventional ionic liquids. Furthermore, it can be concluded that the ionic liquid of example 6 has structuring properties in water, organic solvents and in particular also in the pure state. Accordingly, it can serve, for example, as template in the mineralization processes (e.g. for mesoporous silicates). Furthermore, the ionic liquid of example 6 is liquid at room temperature (for melting point, see Table 1).

[4] = Solubility experiments: salts and olive oil dissolved in TEGMECH2COONa; type: physicochemical
Method: Solubility experiments were carried out using the sodium 2,5,8,11-tetraoxatridecan-13-oate synthesized as described in example 1.
The solubility of olive oil in a concentration of up to 10% by weight in TEGMECH2COONa is particularly worthy of mention with regard to the environmental compatibility of the sodium salt.

[5] = Electrical conductivity, fluorescence and surface tension measurements in aqueous solution; type: physicochemical; settings: concluded from conductivity and fluorescence or surface tension measurements in aqueous medium
From the text: as §3

With COCCOCCOCCOCC(=O)[O-].[Na+] [Example 1, sodium 2,5,8,11-tetraoxatridecan-13-oate] the Viscosity ([1]; at 25° C.) was 1.64 · 10^5 mPa · s, the Viscosity ([1]; at 25° C. at a low shear rate, order of magnitude) was “one million” and the Decomposition point [2] was 384 °C. The Miscibility with acetone ([3]; acetone) was “miscible in any ratio”, the Miscibility with dichloromethane ([3]; dichloromethane) was “miscible in any ratio” and the “Miscibility with diethyl ether” value ([3]; diethyl ether) was “partially miscible”. The Miscibility with pentanol ([3]; pentanol) was “miscible in any ratio”, the Miscibility with water [3] was “miscible in any ratio” and the “Solubility of magnesium sulfate in the ionic liquid” value ([4]; 120° C.) was “appreciably soluble”. The “Solubility of ammonium nitrate in the ionic liquid” value ([4]; room temperature) was “readily soluble” and the “Solubility of NaCl in the ionic liquid” value ([4]; temperatures above 100° C.) was “dissolves in low concentrations”.
With COCCOCCOCCOCC(=O)[O-].[K+] [Example 3, potassium 2,5,8,11-tetraoxatridecan-13-oate] the melting point was 59.1 °C and the Decomposition point [2] was 369 °C.
In the case of COCCOCCOCCOCC(=O)O [Example 5, hexylammonium 2,5,8,11-tetraoxatridecan-13-oate], the Viscosity ([1]; at 25° C.) was 2.40 · 10^2 mPa · s, the Viscosity ([1]; order of magnitude) was ~20 000 mPas and the “Character in aqueous solution” value [5] was “hydrotropic character”.
With CCCCCCCCN.COCCOCCOCCOCC(=O)O [Example 7] the Viscosity ([1]; at 25° C.) was 3.75 · 10^2 mPa · s and the Decomposition point [2] was 145 °C.
With CCCCCCCCCCN.COCCOCCOCCOCC(=O)O [Example 8] the Viscosity ([1]; at 25° C.) was 4.00 · 10^2 mPa · s and the Decomposition point [2] was 156 °C.
“calcium di(2,5,8,11-tetraoxatridecan-13-oate) [Example 4]” showed a Decomposition point [2] of 320 °C.
With “dodecylammonium 2,5,8,11-tetraoxatridecan-13-oate [Example 6]” the Viscosity ([1]; at 25° C.) was 4.67 · 10^2 mPa · s, the Decomposition point [2] was 165 °C and the “Character in aqueous solution” value [5] was “surfactant character”. For the same compound, the Miscibility with water [3] was “mixes with water in any ratio”.
